We go through eleven molecules from publication PMC9268591, “Anti-Inflammatory, Analgesic and Antioxidant Potential of New (2S,3S)-2-(4-isopropylbenzyl)-2-methyl-4-nitro-3-phenylbutanals and Their Corresponding Carboxylic Acids through In Vitro, In Silico and In Vivo Studies” (Molecules, 2022).

For orientation: melting point means the temperature of the solid-liquid transition. By IC50 is commonly meant the concentration that inhibits the measured activity by half.

Each structure is given as a SMILES string.

The nature of data set [1]: ABTS free radical scavenging assay. The procedure:
The total antioxidant activity of test compound (HBH) was estimated using the 2, 2-azinobis [3-ethylbenzthiazoline]-6-sulfonic acid (ABTS). The 100 mL of ABTS solution (7 mM) was added to 100 mL of potassium persulfate ([…], 2.45 mM) solution, mixed, and kept in the dark for 12 h to generate free radicals. […]. Gallic acid at 2 mg/2 mL of water was used as a standard drug. Likewise, for the test sample, different concentrations (1000–62.5 μg/mL) of the […] were made for absorbance measurements at the same wavelength. The 300 μL of each test solution was added to 3 mL of ABTS solution to measure the absorbance at 745 nm through a UV-visible spectrophotometer. A similar volume of each standard solution was taken to determine the absorbance at the same wavelength. The ABTS percent scavenging potential was calculated via the above formula [45].

For data set [2], the target named is COX-1 (Homo sapiens, UniProt P23219). Nature of the data set: Cyclooxygenase (COX-1) inhibition assay. It is filed as biochemical. To be noted: read-out: IC50 ± SEM COX-1. The method, then: (§1) The COX-1 and 2 enzymes’ inhibitions assays on the synthesized compounds were carried out as per the standard reported method. Initially, the respective enzyme solution was prepared in a concentration of 300 units/mL. The enzyme activation was started with keeping 10 µL of enzyme solution in the cold for up to 10 min. To this enzyme solution was added the substrate solution in HCl (0.1 M Trish buffer with pH of 8.0). The co-factor 50 µL solution contained TMPD (N,N,N,N-tetramethyl-p-phenylenediamine dihydrochloride, 0.24 mM), hematin (1 mM) and glutathione (0.9 mM). […] The reaction was initiated by adding arachidonic acid (20 µL, 30 mM). The overall solution was incubated for five minutes. Afterwards, the absorbance was recorded on a UV-visible instrument at 570 nm. From the absorbance value of every sample, the percentage inhibition was calculated as per the standard method.
Chain of COX-1 (P23219 24-599): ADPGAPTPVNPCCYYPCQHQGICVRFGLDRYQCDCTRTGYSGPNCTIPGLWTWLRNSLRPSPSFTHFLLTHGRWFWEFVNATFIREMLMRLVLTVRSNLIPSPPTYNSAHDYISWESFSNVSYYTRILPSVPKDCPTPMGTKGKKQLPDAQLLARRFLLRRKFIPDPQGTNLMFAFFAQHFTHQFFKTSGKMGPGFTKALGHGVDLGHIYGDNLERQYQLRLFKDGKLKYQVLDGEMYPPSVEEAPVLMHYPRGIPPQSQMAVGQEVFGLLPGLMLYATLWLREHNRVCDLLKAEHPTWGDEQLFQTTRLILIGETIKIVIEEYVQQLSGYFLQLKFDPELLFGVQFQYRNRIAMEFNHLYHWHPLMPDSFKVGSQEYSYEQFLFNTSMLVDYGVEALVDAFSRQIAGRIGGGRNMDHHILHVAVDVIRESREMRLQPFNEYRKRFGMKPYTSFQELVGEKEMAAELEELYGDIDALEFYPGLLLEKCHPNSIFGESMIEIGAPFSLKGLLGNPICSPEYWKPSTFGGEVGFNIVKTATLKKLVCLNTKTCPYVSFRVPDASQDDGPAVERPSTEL

Data set [3] addresses T1, COX-2 (Homo sapiens, UniProt P35354).
T1 construct: purchased Sigma Aldrich Germany C0858
T1 sequence (P35354 18-604): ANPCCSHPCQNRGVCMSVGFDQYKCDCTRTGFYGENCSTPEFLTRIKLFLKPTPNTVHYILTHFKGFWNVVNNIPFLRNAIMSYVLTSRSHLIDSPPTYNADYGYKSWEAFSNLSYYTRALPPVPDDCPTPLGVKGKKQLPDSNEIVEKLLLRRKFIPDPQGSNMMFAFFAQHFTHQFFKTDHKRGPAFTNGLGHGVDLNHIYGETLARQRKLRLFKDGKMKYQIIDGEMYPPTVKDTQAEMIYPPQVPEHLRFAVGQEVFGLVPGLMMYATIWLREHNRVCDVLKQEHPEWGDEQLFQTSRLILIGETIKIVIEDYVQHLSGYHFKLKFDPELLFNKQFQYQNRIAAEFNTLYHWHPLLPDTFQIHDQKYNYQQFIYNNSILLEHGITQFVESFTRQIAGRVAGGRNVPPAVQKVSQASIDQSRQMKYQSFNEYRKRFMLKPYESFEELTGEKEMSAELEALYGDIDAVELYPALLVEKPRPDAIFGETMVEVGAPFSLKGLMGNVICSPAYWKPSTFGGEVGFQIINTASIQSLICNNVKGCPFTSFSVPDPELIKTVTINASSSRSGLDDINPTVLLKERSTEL
Briefly: Cyclooxygenase (COX-2) inhibition assay. It is filed as biochemical. The note with it: for SI (calculated selectivity index): COX-2 selectivity over COX-1; for IC50: read-out: IC50 ± SEM COX-2. The procedure:
as §1
Cyclooxygenase (COX-2) was acquired from human recombinant (Catalog No:C0858) and […]
co-factor substances in this study like N, N_, N_-tetramethyl-p-phenylenediamine […]
91- 7, GmbH USA). these all were purchased from Sigma Aldrich Germany. Buffer solution containing (KH2PO4 & K2HPO4), was of best quality with high purity. […]
was purchased from Pfizer Pharmaceutical and Libra (Pvt.) limited . Tramadol, Diclofenac was purchased from Alliance Pharmaceutical Pakistan.

Data set [4] can be described thus: DPPH free radical scavenging assay. The method, then: The protocol of Brand-Williams et al. was used for the DPPH assay with some modifications. DPPH (4 mg) was dissolved in methanol (100 mL) to obtain a mixture of […] 1,1-diphenyl,2-picrylhydrazyl (DPPH). The stock solution of the various synthesized compounds was prepared in methanol with 1 mg/mL concentration. This stock solution was used to prepare different concentrations of test samples ranging within 1000–62.5 μg/mL. The 0.1 mL of each concentration (1000–62.5 μg/mL) was combined with the DPPH (3 mL) solution in methanol. The solution was kept at 23 °C for 15 min incubation, followed by the absorbance measurement deliberated at 517 nm. Gallic acid was used as a standard drug in this assay. The percentage DPPH radical scavenging potential was measured via the formula [44]: % radical scavenging potential=CAbs.−SAbs./CAbs.×100 where CAbs. is the absorbance of the control, and SAbs is the absorbance of test samples/standard.

Data set [5] has as its target T2, 5-LOX (Homo sapiens, UniProt P09917).
T2 construct: purchased Sigma Aldrich Germany 437996
T2 sequence (P09917 1-674): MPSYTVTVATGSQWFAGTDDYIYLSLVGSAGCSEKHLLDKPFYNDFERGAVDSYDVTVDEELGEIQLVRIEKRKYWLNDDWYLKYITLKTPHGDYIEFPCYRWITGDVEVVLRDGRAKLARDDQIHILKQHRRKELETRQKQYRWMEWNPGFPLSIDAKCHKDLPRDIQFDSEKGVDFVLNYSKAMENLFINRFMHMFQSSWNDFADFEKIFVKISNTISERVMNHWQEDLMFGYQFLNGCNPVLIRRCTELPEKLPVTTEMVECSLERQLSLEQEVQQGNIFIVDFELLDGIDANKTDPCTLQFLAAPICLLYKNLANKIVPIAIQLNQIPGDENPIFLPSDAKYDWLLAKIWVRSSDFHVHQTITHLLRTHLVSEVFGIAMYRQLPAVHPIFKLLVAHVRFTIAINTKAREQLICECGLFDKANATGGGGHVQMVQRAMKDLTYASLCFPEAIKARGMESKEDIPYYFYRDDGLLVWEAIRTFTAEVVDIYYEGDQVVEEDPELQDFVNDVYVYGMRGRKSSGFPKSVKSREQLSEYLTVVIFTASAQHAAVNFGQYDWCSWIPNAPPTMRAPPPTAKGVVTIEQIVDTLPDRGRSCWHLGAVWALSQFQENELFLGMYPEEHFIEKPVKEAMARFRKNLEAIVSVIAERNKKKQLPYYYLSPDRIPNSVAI
Briefly: 5-Lipoxygenase (5-LOX) inhibition assay. The note with it: read-out: 5LOX IC50 ± SEM. It is filed as biochemical. The procedure:
The lipoxygenase inhibition assay on the synthesized compounds was carried out as per the standard reported method. […] The 5-LOX enzyme solution was also prepared at a strength of 10,000 units/mL. The linoleic acid (80 mM) was employed as a substrate in lipoxygenase assay. The buffer (phosphate) was also prepared for the assay having 50 mM strength and a pH of 6.3. The samples of synthesized compounds (250 µL), phosphate buffer (250 µL) and mixture of the enzyme were mixed and incubated for five minutes. Afterwards, the solution of the substrate (0.6 mM, 1000 µL) was mixed with lipoxygenase enzyme mixture with shaking. […] The percent inhibition was calculated as per the standard method. […]
91- 7, GmbH USA). these all were purchased from Sigma Aldrich Germany. Buffer solution
containing (KH2PO4 & K2HPO4), was of best quality with high purity. […]

The subject of data set [6] is albino mice. Briefly: Acute toxicity. It is filed as in vivo. To be noted: highest dose 2000 mg/kg. The text has this: Before testing our selected compounds for in vivo experiments, we performed the toxicity test as per the protocol. Four groups of animals were labelled, with eight animals in each group. The control group was given normal saline, while other groups were given different concentrations of the selected compounds.

Regarding `CC(C)c1ccc(C[C@](C)(C=O)[C@@H](C[N+](=O)[O-])c2ccccc2)cc1` (mixture of isomers) [FM1, (2S,3S)-2-(4-isopropylbenzyl)-2-methyl-4-nitro-3-phenylbutanal], the melting point lay in the range of 149 to 151 °C. In data set [1], this molecule came in with an IC50 of 62.9 µM. The 50% inhibitory concentration (IC50) in data set [2] was determined as 14.8 ± 1.19 µM. In data set [3], the “SI (calculated selectivity index)” value is 12.2 and the IC50 amounted to 1.21 ± 0.03 µM. In data set [4], the midpoint of inhibition, the IC50, lay at 54.4 µM. Moreover, in data set [5], the IC50 came out at 1.81 ± 0.11 µM.

Turning to `CC(C)c1ccc(C[C@](C)(C=O)[C@@H](C[N+](=O)[O-])c2ccc(Cl)cc2)cc1` (mixture of isomers) [FM2, (2S,3S)-3-(4-chlorophenyl)-2-(4-isopropylbenzyl)-2-methyl-4-nitrobutanal], the melting point fell in the range of 173 to 175 °C. The same molecule returned a half-maximal inhibitory concentration (IC50) in data set [1] of 42 µM. Further, in data set [2], the IC50 was found to be 38 ± 1.65 µM. Moreover, in data set [3], the “SI (calculated selectivity index)” value is 15.1 and the IC50 worked out at 2.51 ± 0.24 µM. Besides, the half-maximal inhibitory concentration (IC50) in data set [4] amounted to 55.4 µM. In addition, the IC50 in data set [5] is 0.64 ± 0.01 µM.

In the case of `Cc1ccc([C@H](C[N+](=O)[O-])[C@@](C)(C=O)Cc2ccc(C(C)C)cc2)cc1` (mixture of isomers) [FM3, (2S,3S)-2-(4-isopropylbenzyl)-2-methyl-4-nitro-3-(p-tolyl)butanal], the melting point lay within 135 to 137 °C. Besides, in data set [1], the IC50 worked out at 11.5 µM. The IC50 in data set [2] is 12.8 ± 1.08 µM. Besides, in data set [3], the “SI (calculated selectivity index)” value is 3.6 and the IC50 amounted to 3.53 ± 0.18 µM. Moreover, in data set [4], half-maximal inhibition (IC50) was put at 15.1 µM. The IC50 in data set [5] worked out at 9.69 ± 0.99 µM.

As to `COc1ccc([C@H](C[N+](=O)[O-])[C@@](C)(C=O)Cc2ccc(C(C)C)cc2)cc1` (mixture of isomers) [FM4, (2S,3S)-2-(4-isopropylbenzyl)-3-(4-methoxyphenyl)-2-methyl-4-nitrobutanal], the IC50 was determined as 25.8 µM in data set [1]; 31.7 ± 1.37 µM in data set [2]; 0.74 ± 0.03 µM in data set [3]; 21.1 µM in data set [4]; 0.98 ± 0.12 µM in data set [5]. Also, the “SI (calculated selectivity index)” value in data set [3] is 42.8. Also, in data set [6], the Acute toxicity observation entry was “very mild seizures and disturbances in breath (temporary)”.

For `COc1ccccc1[C@H](C[N+](=O)[O-])[C@@](C)(C=O)Cc1ccc(C(C)C)cc1` (mixture of isomers) [FM5, (2S,3S)-2-(4-isopropylbenzyl)-3-(2-methoxyphenyl)-2-methyl-4-nitrobutanal], the melting point was 129 to 131 °C. In data set [1], this molecule displayed an IC50 of 191 µM. Besides, the 50% inhibitory concentration (IC50) in data set [2] worked out at 58.4 ± 2.08 µM. Moreover, in data set [3], the “SI (calculated selectivity index)” value was 7.2 and the IC50 was determined as 8.15 ± 0.98 µM. This molecule returned an IC50 in data set [4] of 184 µM. For the same molecule, the half-inhibitory concentration (IC50) in data set [5] came out at 16.3 ± 1.02 µM.

`CC(C)c1ccc(C[C@](C)(C=O)[C@@H](C[N+](=O)[O-])c2ccco2)cc1` (mixture of isomers) [FM6, (2S,3S)-3-(furan-2-yl)-2-(4-isopropylbenzyl)-2-methyl-4-nitrobutanal]: the melting point lay in the range of 161 to 163 °C. In data set [1], this molecule came in with an IC50 of 37.7 µM. The IC50 in data set [2] is 54.8 ± 1.95 µM. Moreover, in data set [3], the “SI (calculated selectivity index)” value is reported as 11.6 and the half-maximal inhibitory concentration (IC50) was 4.72 ± 0.08 µM. In addition, the concentration for half-maximal inhibition (IC50) in data set [4] was determined as 49.7 µM. In addition, the IC50 in data set [5] stood at 6.17 ± 0.23 µM.

In turn, `CC(C)c1ccc(C[C@](C)(C(=O)O)[C@@H](C[N+](=O)[O-])c2ccccc2)cc1` [FM7, (2S,3S)-2-(4-isopropylbenzyl)-2-methyl-4-nitro-3-phenylbutanoic Acid] registered a melting point of 243 to 245 °C. The concentration for half-maximal inhibition (IC50) in data set [1] worked out at 24.7 µM. Moreover, in data set [2], the IC50 worked out at 25.3 ± 1.22 µM. In addition, in data set [3], the “SI (calculated selectivity index)” value was 23.2 and the IC50 was 1.09 ± 0.01 µM. Further, in data set [4], the half-maximal inhibitory concentration (IC50) was 22.5 µM. The IC50 in data set [5] was 0.73 ± 0.05 µM.

On to `CC(C)c1ccc(C[C@](C)(C(=O)O)[C@@H](C[N+](=O)[O-])c2ccc(Cl)cc2)cc1` [FM8], for which the melting point was in the range of 259 to 261 °C.

`Cc1ccc([C@H](C[N+](=O)[O-])[C@](C)(Cc2ccc(C(C)C)cc2)C(=O)O)cc1` [FM9] came in with a melting point of 233 to 235 °C.

Turning to `COc1ccccc1[C@H](C[N+](=O)[O-])[C@](C)(Cc1ccc(C(C)C)cc1)C(=O)O` [FM11], the melting point lay in the range of 211 to 213 °C.

In the case of `O=C(O)c1cc(O)c(O)c(O)c1` [Gallic acid, reference compound], the half-inhibitory concentration (IC50) in data set [1] was 3.23 µM; in data set [4] it was 9.02 µM.
